# Data taken from patent publication US7872122B2, “Process for making Biolimus A9” (Chunghwa Chemical Synthesis & Biotech Co., Ltd., priority 2009, dated 2011).
# Experiment: Stability of Biolimus A9 at 40° C. with added anti-oxidant BHT
# Format: physicochemical
# From the text: The yield data of different amounts of anti-oxidant as added into Biolimus A9 with respect to time lapse of weeks are summarized in Table 1 as below-mentioned.
smiles,measurement,setting,value
CCOCCO[C@@H]1CC[C@@H](C[C@@H](C)[C@@H]2CC(=O)[C@H](C)/C=C(\C)[C@@H](O)[C@@H](OC)C(=O)[C@H](C)C[C@H](C)/C=C/C=C/C=C(\C)[C@@H](OC)C[C@@H]3CC[C@@H](C)[C@@](O)(O3)C(=O)C(=O)N3CCCC[C@H]3C(=O)O2)C[C@H]1OC [Biolimus A9],Purity (%) of Biolimus A9,"BHT 0.0% (w/w), 0 week",99.7%
same,Purity (%) of Biolimus A9,"BHT 0.0% (w/w), 2 weeks",98.2%
same,Purity (%) of Biolimus A9,"BHT 0.0% (w/w), 4 weeks",88.4%
same,Purity (%) of Biolimus A9,"BHT 0.0% (w/w), 6 weeks",69.7%
same,Purity (%) of Biolimus A9,"BHT 0.1% (w/w), 0 week",99.7%
same,Purity (%) of Biolimus A9,"BHT 0.1% (w/w), 2 weeks",99.5%
same,Purity (%) of Biolimus A9,"BHT 0.1% (w/w), 4 weeks",99.5%
same,Purity (%) of Biolimus A9,"BHT 0.1% (w/w), 6 weeks",99.5%
same,Purity (%) of Biolimus A9,"BHT 0.2% (w/w), 0 week",99.6%
same,Purity (%) of Biolimus A9,"BHT 0.2% (w/w), 2 weeks",99.6%
same,Purity (%) of Biolimus A9,"BHT 0.2% (w/w), 4 weeks",99.5%
same,Purity (%) of Biolimus A9,"BHT 0.2% (w/w), 6 weeks",99.5%
same,Purity (%) of Biolimus A9,"BHT 0.5% (w/w), 0 week",99.6%
same,Purity (%) of Biolimus A9,"BHT 0.5% (w/w), 2 weeks",99.5%
same,Purity (%) of Biolimus A9,"BHT 0.5% (w/w), 4 weeks",99.4%
same,Purity (%) of Biolimus A9,"BHT 0.5% (w/w), 6 weeks",99.4%
same,Purity (%) of Biolimus A9,"BHT 1.0% (w/w), 0 week",99.6%
same,Purity (%) of Biolimus A9,"BHT 1.0% (w/w), 2 weeks",99.5%
same,Purity (%) of Biolimus A9,"BHT 1.0% (w/w), 4 weeks",99.4%
same,Purity (%) of Biolimus A9,"BHT 1.0% (w/w), 6 weeks",99.4%
same,yield after six-week storage,"BHT added for 0.1%, 0.2, 0.5%, and 1% (w/w), six-week storage",more than 99.4%
